The test system of one series is Sphaerotheca fuliginea. Nature of the series: In vivo preventive test on Sphaerotheca fuliginea (cucumber). To be noted: 500 ppm of active ingredient, evaluated 7 days after inoculation. In outline: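 Young cucumber plants sprayed with compound (in DMF with alkylarylpolyglycolether emulsifier, diluted in water) at the stated application rate. Inoculated one day later with aqueous Sphaerotheca fuliginea spore suspension. Plants then held in greenhouse at approximately 23° C and approximately 70% relative humidity.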

In the next series the test system is Alternaria solani. Kind of series: In vivo preventive test on Alternaria solani (tomato). As to conditions: 500 ppm of active ingredient, evaluated 7 days after inoculation. In a few lines:
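Young tomato plants sprayed preventively with compound in DMF/alkylarylpolyglycolether emulsion diluted in water to the stated rate. Inoculation with aqueous Alternaria solani spore suspension one day after treatment.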

In the next series the test system is Pyrenophora teres. Kind of series: In vivo preventive test on Pyrenophora teres (barley). As to conditions: 500 ppm of active ingredient, evaluated 7-9 days after inoculation. In a few lines:
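Compound formulated in N,N-dimethylformamide with alkylaryl polyglycol ether emulsifier and diluted in water, then sprayed on young barley plants at the stated application rate. Plants inoculated one day later with aqueous Pyrenophora teres spore suspension, testing preventive protection.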

The test system of the next series is Leptosphaeria nodorum. Kind of series: In vivo preventive test on Leptosphaeria nodorum (wheat). To be noted: 500 ppm of active ingredient, evaluated 7-9 days after inoculation. Here is the method: Solvent: 49 parts by weight of N,N-dimethylacetamide Emulsifier: 1 part by weight of alkylaryl polyglycol ether To produce a suitable preparation of active compound, 1 part by weight of active compound is mixed with the stated amounts of solvent and emulsifier, and the concentrate is diluted with water to the desired concentration. To test for preventive activity, young plants are sprayed with a preparation of active compound at the stated rate of application. One day after this treatment, the plants are inoculated with an aqueous spore suspension of Leptosphaeria nodorum.

A further series concerns Botrytis cinerea. Kind of series: In vivo preventive test on Botrytis cinerea (beans). As to conditions: Table L, 500 ppm of active ingredient, lesion size 2 days after inoculation. Here is the method:
Solvent: 24.5 parts by weight of acetone • 24.5 parts by weight of N,N-dimethylacetamide
Emulsifier: 1 part by weight of alkylaryl polyglycol ether
To produce a suitable preparation of active compound, 1 part by weight of active compound is mixed with the stated amounts of solvent and emulsifier, and the concentrate is diluted with water to the desired concentration.
To test for preventive activity, young plants are sprayed with the preparation of active compound. After the spray coating has dried on, 2 small pieces of agar covered with growth of Botrytis cinerea are placed on each leaf. The inoculated plants are placed in a darkened chamber at 20° C. and a relative atmospheric humidity of 100%.
2 days after the inoculation, the size of the lesions on the leaves is evaluated. 0% means an efficacy which corresponds to that of the untreated control, while an efficacy of 100% means that no disease is observed.

Series [1] can be described thus: log P by HPLC on reversed-phase column (EEC Directive 79/831 Annex V.A8). The class given is physicochemical. The protocol:
In table 1, the log P values were determined in accordance with EEC Directive 79/831 Annex V.A8 by HPLC (High Performance Liquid Chromatography) on a reversed-phase column (C18), using the method described below: Temperature: 40° C.; […]

The test system of the next series is Venturia inaequalis. Kind of series: In vivo preventive test on Venturia inaequalis (apple scab). As to conditions: 100 ppm of active ingredient, evaluated 10 days after inoculation. Here is the method: (§1) Solvent: 24.5 parts by weight of acetone • 24.5 parts by weight of N,N-dimethylacetamide Emulsifier: 1 part by weight of alkylaryl polyglycol ether To produce a suitable preparation of active compound, 1 part by weight of active compound is mixed with the stated amounts of solvent and emulsifier, and the concentrate is diluted with water to the desired concentration. To test for preventive activity, young plants are sprayed with the preparation of active compound at the stated rate of application.

The test system of a further series is Uromyces appendiculatus. Kind of series: In vivo preventive test on Uromyces appendiculatus (beans). As to conditions: 100 ppm of active ingredient, evaluated 10 days after inoculation. Here is the method: as §1
The next series deals with Puccinia triticina. Kind of series: In vivo preventive test on Puccinia triticina (wheat). To be noted: Table K, 500 ppm of active ingredient, evaluated 8 days after inoculation.
Series [2] deals with aflatoxines produced by Aspergillus parasiticus. Kind of series: microbe, parasite or virus in culture. Type of series: cell-based.
For the next series, the system named is Aspergillus parasiticus. Nature of the series: microbe, parasite or virus in culture. Type of series: cell-based.
Another series deals with Septoria tritici. Kind of series: In vivo preventive test on Septoria tritici (wheat). To be noted: 500 ppm of active ingredient, evaluated 21 days after inoculation. Here is the method:
Solvent: 49 parts by weight of N,N-dimethylacetamide Emulsifier: 1 part by weight of alkylaryl polyglycol ether To produce a suitable preparation of active compound, 1 part by weight of active compound or active compound combination is mixed with the stated amounts of solvent and emulsifier, and the concentrate is diluted with water to the desired concentration. To test for preventive activity, young plants are sprayed with the preparation of active compound or active compound combination at the stated rate of application. After the spray coating has been dried, the plants are sprayed with a spore suspension of Septoria tritici.

In series [3] the test system is Blumeria graminis fsp. hordei. Nature of the series: In vivo preventive test on Blumeria graminis (barley). To be noted: 500 ppm of active ingredient, evaluated 7 days after inoculation. Here is the method:
Solvent: 49 parts by weight of N,N-dimethylacetamide Emulsifier: 1 part by weight of alkylaryl polyglycol ether To produce a suitable preparation of active compound, 1 part by weight of active compound or active compound combination is mixed with the stated amounts of solvent and emulsifier, and the concentrate is diluted with water to the desired concentration. To test for preventive activity, young plants are sprayed with the preparation of active compound or active compound combination at the stated rate of application. After the spray coating has been dried, the plants are dusted with spores of Blumeria graminis fsp. hordei.

Experimental findings from US8999956B2, “N-[(het)arylalkyl)] pyrazole(thio)carboxamides and their heterosubstituted analogues” (Bayer Intellectual Property GmbH, priority 2010, dated 2015) are described below.

Where two headings read alike, the source gives them in different places.

As to `Cn1nc(C(F)F)c(C(=S)N(C[Si](C)(C)Cc2ccccc2)C2CC2)c1F` [Example 289], the Efficacy stood at 93% in the series on Sphaerotheca fuliginea; 95% in the series with Alternaria solani; 100% with Pyrenophora teres; 95% in the series on Leptosphaeria nodorum; 100% in the series with Botrytis cinerea. In series [1], this compound displayed a logP of 4.67.
Regarding `CCCCC1CCCC1NC(=O)c1c(C(F)F)nn(C)c1Cl` (stereo not shown) [Example 307], the Efficacy in the series on Sphaerotheca fuliginea is recorded as 83%; in the series on Alternaria solani, 100%; with Pyrenophora teres, 100%; in the series on Venturia inaequalis, 100%; with Uromyces appendiculatus, 100%; in the series with Puccinia triticina it was 80%. In addition, the “% Inhibition of Aflatoxin at 50 μM” value in series [2] turned out to be 100%. The “% Inhibition of fungal growth at 50 μM” value with Aspergillus parasiticus was 92%. Moreover, in series [1], the logP was found to be 3.83.
On to `Cn1nc(C(F)F)c(C(=O)N(C2CC2)C2CCCCC2C2CCCCC2)c1F` (stereo not shown) [Example 372], for which the Efficacy in the series with Sphaerotheca fuliginea came to 100%; in the series on Alternaria solani, 95%; in the series on Pyrenophora teres, 100%; in the series on Leptosphaeria nodorum it was 94%; in the series on Puccinia triticina, 100%; in the series with Botrytis cinerea, 91%. In series [1], this compound displayed a logP of 5.28.
Turning to `CC(C)CC(C)C1CCCC1NC(=O)c1c(C(F)F)nn(C)c1Cl` (single isomer, unassigned) [Example 312], the Efficacy in the series on Sphaerotheca fuliginea is listed as 90%; in the series with Alternaria solani, 95%; with Pyrenophora teres, 100%; in the series with Venturia inaequalis, 99%; in the series with Leptosphaeria nodorum, 95%; with Uromyces appendiculatus it was 100%. For the same compound, the Efficacy with Puccinia triticina is 100%. The “% Inhibition of Aflatoxin at 50 μM” value in series [2] (50 µM) is reported as 100%. Besides, the “% Inhibition of fungal growth at 50 μM” value in the series on Aspergillus parasiticus (50 µM) was 99%. Further, the logP in [1] amounted to 4.40 isomer A.
Consider `Cn1nc(C(F)F)c(C(=O)N(C2CC2)C2CCCCC2C2=CCCCC2)c1F` (stereo not shown) [Example 376], for which, in the series on Uromyces appendiculatus, the Efficacy is recorded as 94%. In addition, the logP in series [1] was 4.88.
With `CC(C)CC(C)C1CCCC1NC(=O)c1c(C(F)F)nn(C)c1Cl` (single isomer, unassigned) [Example 314], the Efficacy in the series with Sphaerotheca fuliginea was determined as 90%; with Alternaria solani, 95%; in the series with Pyrenophora teres, 100%; in the series with Venturia inaequalis it was 98%; with Leptosphaeria nodorum it was 80%; in the series with Uromyces appendiculatus, 85%. The compound further yielded a logP in series [1] of 4.47 isomer C.
On to `CC(C)CC(C)C1CCCCC1NC(=O)c1c(C(F)F)nn(C)c1F` (single isomer, unassigned) [Example 337], for which the Efficacy amounted to 100% in the series on Sphaerotheca fuliginea; 100% in the series on Alternaria solani; 100% in the series with Pyrenophora teres; 74% with Venturia inaequalis; 78% with Septoria tritici; 86% in the series on Uromyces appendiculatus. Also, the figures for the Efficacy in the series on Puccinia triticina and in the series with Botrytis cinerea were 70% and 93%, respectively. This compound also came in with a logP in [1] of 4.47 isomer A.
In the case of `CC(C)CC(C)C1CCCC1NC(=O)c1c(C(F)F)nn(C)c1Cl` (single isomer, unassigned) [Example 313], the Efficacy in the series with Alternaria solani is recorded as 80%; in the series on Pyrenophora teres, 100%; in the series with Uromyces appendiculatus, 88%. Moreover, the “% Inhibition of Aflatoxin at 50 μM” value in [2] (50 µM) is listed as 99%. Besides, in the series on Aspergillus parasiticus (50 µM), the “% Inhibition of fungal growth at 50 μM” value came out at 82%. The logP in [1] came to 4.46 isomer B.
`CC(C)CCC1CCCC1NC(=O)c1c(C(F)F)nn(C)c1F` (stereo not shown) [Example 310]: the Efficacy with Sphaerotheca fuliginea, in the series on Alternaria solani, in the series on Pyrenophora teres, in the series on Venturia inaequalis and with Uromyces appendiculatus was 100% in each case. The “% Inhibition of Aflatoxin at 50 μM” value in [2] was 100%. Moreover, the “% Inhibition of fungal growth at 50 μM” value in the series with Aspergillus parasiticus was determined as 96%. This compound gave a logP in [1] of 3.98.
On to `Cn1nc(C(F)F)c(C(=O)NCC2CCCC(C(F)(F)F)C2)c1Cl` (mixture of isomers) [Example 378], for which the Efficacy is given as 100% in the series on Alternaria solani; 100% in the series with Pyrenophora teres; 100% in the series with Venturia inaequalis; 100% in the series with Uromyces appendiculatus; 96% in the series with Botrytis cinerea.
`CC(CC1CCCCC1)N(C(=O)c1c(C(F)F)nn(C)c1F)C1CC1` (stereo not shown) [Example 370]: the Efficacy in the series on Sphaerotheca fuliginea was determined as 100%; with Alternaria solani, 100%; in the series on Pyrenophora teres, 100%; with Leptosphaeria nodorum it was 90%; in the series with Puccinia triticina, 90%; in the series on Botrytis cinerea, 100%. Besides, the logP in series [1] was 4.36.
Take `Cn1nc(C(F)F)c(C(=O)NC2CCCC2CCC(C)(C)C)c1Cl` (stereo not shown) [Example 320]: the Efficacy in the series with Sphaerotheca fuliginea is given as 100%; with Alternaria solani, 100%; in the series on Pyrenophora teres, 95%; in the series with Venturia inaequalis, 100%; in the series with Uromyces appendiculatus, 99%; with Puccinia triticina, 70%. For the same compound, the “% Inhibition of Aflatoxin at 50 μM” value in [2] worked out at 99%. In addition, in the series with Aspergillus parasiticus, the “% Inhibition of fungal growth at 50 μM” value was 82%. Besides, the logP in [1] amounted to 4.49.
For the compound `CC(C)CC(C)C1CCCC1NC(=O)c1c(C(F)F)nn(C)c1F` (single isomer, unassigned) [Example 316], the Efficacy in the series on Sphaerotheca fuliginea was 98%; with Alternaria solani, 90%; in the series with Pyrenophora teres it was 100%; with Venturia inaequalis it was 100%; in the series with Leptosphaeria nodorum it was 80%; in the series on Uromyces appendiculatus, 100%. In the series on Puccinia triticina, the Efficacy amounted to 100%. The “% Inhibition of Aflatoxin at 50 μM” value in [2] came to 100%. The “% Inhibition of fungal growth at 50 μM” value in the series on Aspergillus parasiticus (50 µM) was 100%. This compound also came in with a logP in series [1] of 4.19 isomer A.
Consider `CC(N(C(=O)c1c(C(F)F)nn(C)c1F)C1CC1)C(C)(C)Cc1ccc(Cl)cc1Cl` (stereo not shown) [Example 181], for which the Efficacy (in the series on Sphaerotheca fuliginea; in the series on Alternaria solani; with Pyrenophora teres; in the series with Venturia inaequalis; with Septoria tritici; in series [3]) was 100% throughout. Besides, the values for the Efficacy with Leptosphaeria nodorum and in the series on Uromyces appendiculatus were 95% and 78%, respectively. In addition, the logP in series [1] is listed as 5.14.
Take `Cn1nc(C(F)F)c(C(=O)N(C[Si](C)(C)Cc2cccc(Cl)c2)C2CC2)c1F` [Example 291]: the Efficacy in the series with Sphaerotheca fuliginea amounted to 73%; in the series on Alternaria solani, 100%; in the series with Pyrenophora teres it was 100%; with Leptosphaeria nodorum, 100%; in the series with Botrytis cinerea it was 100%. The “% Inhibition of Aflatoxin at 50 μM” value in series [2] is recorded as 100%. Moreover, the “% Inhibition of fungal growth at 50 μM” value with Aspergillus parasiticus came to 100%. For the same compound, the logP in series [1] was 4.44.
